Here are results for nine compounds from ChEMBL document CHEMBL1201862, “PubChem BioAssay data set” (2004).

Assay in all cases: growth of human tumour cells (NCI), 48 h
The test system of experiment [1] is IGROV-1.
Experiment [2] concerns SNB-75.
Experiment [3] concerns CAKI-1.
In experiment [4] the test system is HT-29.
Experiment [5] relates to SK-OV-3.
In experiment [6] the test system is SW-620.
Experiment [7] has as its system RPMI-8226.
Experiment [8] concerns OVCAR-8.
Experiment [9] relates to SF-295.
The test system of experiment [10] is NCI-H226.
In experiment [11] the test system is COLO 205.
Experiment [12] concerns NCI-H522.
In experiment [13] the test system is LOX IMVI.
The subject of experiment [14] is SNB-19.
Experiment [15] deals with HOP-62.
Experiment [16] deals with CCRF-CEM.
In experiment [17] the test system is OVCAR-4.
Experiment [18] has as its system HOP-92.
For experiment [19], the system named is U-251.
Experiment [20] has as its system SR.

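Method: 48-hour compound exposure of cells in 96-well plates, five concentrations, linear interpolation of endpoints. Here, GI50 denotes the concentration required for 50% inhibition of growth.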 The source made the active and inactive calls. Rule as the data show it: active = GI50 up to about 1.1 µM and inactive = higher.

Take `CN1CN(C(=O)N2CN(C)C(=O)N(C)C2)CN(C)C1=O`: the GI50 in experiment [1], in [2], in experiment [3], in [4], in [5] and in experiment [6] was > 100 µM (inactive) each time. In addition, the GI50 in [7], in experiment [8], in [9], in experiment [10], in experiment [11] and in [12] was > 100 µM (inactive) throughout. The GI50 in experiment [13], in experiment [14], in experiment [15] and in experiment [16] was > 100 µM (inactive) throughout.

As to `O=C(O)C12CC3CC(C1)C2C=C3P(=O)(O)O` (centres undefined), the GI50 in [1], in [2], in [3], in experiment [4], in [17] and in experiment [5] was > 100 µM (inactive) throughout. Further, the GI50 in experiment [6], in experiment [7], in experiment [8], in [9], in [10] and in experiment [11] was > 100 µM (inactive) in each case. For the same compound, the GI50 in [12], in experiment [13], in [18], in [15], in [19] and in experiment [16] was > 100 µM (inactive) in each case.

As for `CC(=O)OC1CC[C@@]2(C)C(=CC[C@@H]3[C@@H]2CC[C@]2(C)Nc4nn(S(C)(=O)=O)cc4C[C@@H]32)C1` (some centres undefined), the GI50 in experiment [1] is 73.6 µM (inactive); in experiment [2] it was 24.2 µM (inactive); in experiment [3], 40.1 µM (inactive); in experiment [4] it was 11.6 µM (inactive); in [5], > 100 µM (inactive); in experiment [7], 30 µM (inactive). For the same compound, the GI50 in [8] is 32.5 µM (inactive); in experiment [9], 34 µM (inactive); in experiment [10], 27.7 µM (inactive); in experiment [11], 35.7 µM (inactive); in experiment [12], 35.2 µM (inactive); in experiment [18], 49.5 µM (inactive). For the same compound, the GI50 in experiment [20] was 36.4 µM (inactive); in experiment [14], 79.4 µM (inactive); in experiment [15], 43.9 µM (inactive); in [19], 36.1 µM (inactive); in experiment [16] it was 10.6 µM (inactive).

As to `CCOC(=O)C1=NN(c2ccccc2)C2=CC(C)=NN(C)C(=S)N21`, the GI50 in [1], in [2], in experiment [3], in [4], in experiment [17] and in experiment [5] was > 100 µM (inactive) each time. Besides, the GI50 in [6], in [7], in experiment [8], in experiment [9], in experiment [11] and in experiment [12] was > 100 µM (inactive) in each case. Further, the GI50 in [13], in experiment [18], in [20], in experiment [14], in experiment [19] and in experiment [16] was > 100 µM (inactive) each time.

Consider `O=C(/N=N/c1cc(Cl)ccc1Cl)NNc1cc(Cl)ccc1Cl`, for which the GI50 in experiment [1] is 19 µM (inactive); in [2], 28.4 µM (inactive); in experiment [3], 16 µM (inactive); in experiment [4] it was 17.5 µM (inactive); in [5], 30.3 µM (inactive); in experiment [7], 11.9 µM (inactive). The GI50 in experiment [8] is 26.8 µM (inactive); in experiment [9], 22.8 µM (inactive); in [10], > 10 µM (inactive); in [11], 21.8 µM (inactive); in experiment [12], 13.2 µM (inactive); in [18], 15.2 µM (inactive). The GI50 in [20] was 21.2 µM (inactive); in experiment [14] it was > 10 µM (inactive); in experiment [15], 17.3 µM (inactive); in [19], 16.7 µM (inactive); in experiment [16], 13.6 µM (inactive).

As for `Cc1cc(O)nc(NN2C(Cl)C(=O)C2c2c(O)ccc3ccccc23)n1` (centres undefined), the GI50 in [1] was 38.5 µM (inactive); in experiment [2] it was 8.75 µM (inactive); in experiment [4] it was 25 µM (inactive); in [17] it was 17.3 µM (inactive); in experiment [6] it was 30.2 µM (inactive); in experiment [7], 15.5 µM (inactive). In addition, the GI50 in experiment [8] is 27.4 µM (inactive); in experiment [10], 13 µM (inactive); in experiment [11] it was 25.9 µM (inactive); in experiment [13], 13.7 µM (inactive); in [18], 16.4 µM (inactive); in [20], 12 µM (inactive). Also, the GI50 in experiment [14] was 20.7 µM (inactive); in experiment [15] it was 15.1 µM (inactive); in experiment [19], 21.9 µM (inactive); in experiment [16], 6.76 µM (inactive).

In the case of `CCP(=S)(CC)CCl`, the GI50 in [1], in [2], in experiment [3], in experiment [4], in [17] and in experiment [5] was > 100 µM (inactive) in each case. Moreover, the GI50 in experiment [6], in [7], in experiment [8], in experiment [9], in [10] and in [11] was > 100 µM (inactive) in each case. In addition, the GI50 in [12] is > 100 µM (inactive); in [13], > 100 µM (inactive); in [18], 73.5 µM (inactive); in experiment [20], > 100 µM (inactive); in experiment [14], > 100 µM (inactive); in experiment [15], > 100 µM (inactive). The GI50 in [19] and in experiment [16] was > 100 µM (inactive) each time.

As to `COc1ccc(C(=O)Cc2cc(OC)ccc2OC)cc1`, the GI50 in experiment [1] is > 100 µM (inactive); in experiment [2], 29 µM (inactive); in experiment [3] it was > 100 µM (inactive); in experiment [4], > 100 µM (inactive); in [17], > 100 µM (inactive); in experiment [5] it was > 100 µM (inactive). For the same compound, the GI50 is > 100 µM (inactive) in experiment [6]; 75.3 µM (inactive) in experiment [7]; > 100 µM (inactive) in experiment [8]; 48.9 µM (inactive) in [9]; > 100 µM (inactive) in [10]; > 100 µM (inactive) in experiment [11]. Further, the GI50 in experiment [12] is 43.3 µM (inactive); in experiment [13], > 100 µM (inactive); in experiment [20], > 100 µM (inactive); in experiment [14], > 100 µM (inactive); in [15], 66.1 µM (inactive); in [19] it was > 100 µM (inactive). For the same compound, the GI50 in [16] was > 100 µM (inactive).

Take `CC(=O)OC1CC2(O)C(CCC3(C)C(c4ccc(=O)oc4)CCC32O)C2(C)CCC(O)C=C12` (centres undefined): the GI50 is 0.0195 µM (active) in experiment [1]; 0.0317 µM (active) in experiment [2]; 0.0375 µM (active) in experiment [3]; 0.0239 µM (active) in experiment [4]; 0.0206 µM (active) in experiment [17]; 0.0336 µM (active) in experiment [5]. The GI50 was 0.0375 µM (active) in [6]; 0.00993 µM (active) in [7]; 0.0152 µM (active) in [8]; 0.00955 µM (active) in experiment [9]; 0.048 µM (active) in experiment [10]; 0.0385 µM (active) in [11]. Also, the GI50 in experiment [12] was 0.00174 µM (active); in experiment [13], 0.0191 µM (active); in experiment [18] it was 0.0604 µM (active); in experiment [14], 0.0466 µM (active); in [15], 0.0375 µM (active); in [19] it was 0.0169 µM (active).
